{
  "source": "patent US20160264593A1",
  "about": "(priority 2013, published 2016)",
  "experiment": "Pharmacokinetic study of 157 (and metabolite endothal) in SD rats, iv and po; plasma, liver, brain",
  "assay_type": "in vivo",
  "settings": "for AUC(0-inf) / AUC / Cmax / MRT last / half-life / concentration at 0.25 h / concentration at 1 h: 1.5 mg/kg; for AUC: read-out: AUC; for MRT last: read-out: MRT (0-t)",
  "procedure": "The blood, liver and brain tissue samples were collected at predetermined times from rats. […] Compound were diluted shortly before use in 4% sodium bicarbonate for sterile injection (this is the standard pediatric solution of NaHCO3 with a pH of about 8.5).\nCompound 153 was freshly prepared by diluting the drugs shortly before use in 4% sodium bicarbonate for sterile injection (this is the standard pediatric solution of NaHCO3 with a pH of about 8.5). The final concentrations of 153 solutions were 0.25 mg/mL. The 153 solutions were administered via iv or po route at dose volume of 5 ml/kg according to the latest body weight. Compound 157 was freshly prepared by diluting the drugs shortly before use in 4% sodium bicarbonate for sterile injection (this is the standard pediatric solution of NaHCO3 with a pH of about 8.5). The final concentrations of […] solutions were 0.3 mg/mL. The 157 solutions were administered via iv or po route at dose volume of 5 ml/kg according to the latest body weight.\nTwelve (12) female SD rats per group were dosed by iv with 153 or 157. The rats were fasted overnight prior to dosing, with free access to water. Foods were withheld for 2 hours post-dose. Blood, liver and brain tissue samples in two animals each group were collected at each time point, within 10% of the scheduled time for each time point. Two extra animals were used for analytic method development.\nBlood (>0.3 mL) were collected via aorta abdominalis in anaesthetic animals into tubes containing heparin at 15 min, 1, 2, 6, 10 and 24 hours after iv administration. Liver and brain tissues were collected immediately after animal death. The liver and brain tissues were excised and rinsed with cold saline to avoid blood residual. Upon collection, each sample was placed on ice and the blood samples were subsequently centrifuged (4° C., 11000 rpm, 5 min) to separate plasma. The obtained plasma, liver and brain tissue samples were stored at −70° C. until LC-MS/MS analysis.\nTwo (2) female SD rats per group were dosed by po with 153 or 157. The rats were fasted overnight prior to dosing, with free access to water. Foods were withheld for 2 hours post-dose. Blood samples (>0.3 mL) were collected via aorta abdominalis in anaesthetic animals into tubes containing heparin at 30 min, 1, 2, 6, 10 and 24 hours after po administration.\nTo each sample, 30 μL IS-D (for blank samples, 20 μL acetonitrile:water (1:1) was added) and 300 μl acetonitrile was added. The sample mixture was vortexed for approximately 3 min. After centrifugation at 10000 rpm for 5 min at 4° C., 100 μL of the upper layer was transferred to a new tube and added 200 μL 0.4% formic acid in water (pH6.0). The mixture was vortexed for approximately 3 min before injected onto the LC/MS/MS system for analysis.\nOn the day of the assay, the frozen liver and brain samples were thawed unassisted at room temperature. An about 200 mg weighed sample of each thawed tissue was placed into a plastic tube with water (0.6 mL) to facilitate homogenization. Tissue processing was conducted using a homogenizer for approximately 1 min, 100 μl homogenate was transferred into a fresh Eppendorf tube. To each tube, 50 μL IS-D was added and mixed. Then 500 μl acetonitrile was added and the sample mixture was vortexed for approximately 3 min. After centrifugation at 10000 rpm for 5 min at 4° C., 100 μL of the upper layer was transferred to a new tube and evaporate the supernatant to dryness at 35° C. Reconstitute the residue with 200 μL of 0.4% formic acid in water (pH 6.0), and vortex for 3 min, submit for LC-MS/MS analysis.\nFrozen unknown plasma samples were completely thawed at room temperature and vortexed thoroughly. With a pipette, 50 μL of plasma was transferred into a 2.0 mL Eppendorf tube. 50 μL of 0.1N HCl and 800 μL ethyl acetate were added into each sample. The sample mixture was vortexed for approximately 3 min.",
  "key": {"[1]": {"settings": "female, SD (Sprague-Dawley), rat, in vivo, iv, 157 in plasma, IV 1.5 mg/kg, Mean"}, "[2]": {"settings": "female, SD (Sprague-Dawley), rat, in vivo, iv, 157 in plasma, IV 1.5 mg/kg, rat 1"}, "[3]": {"settings": "female, SD (Sprague-Dawley), rat, in vivo, iv, 157 in plasma, IV 1.5 mg/kg, rat 2"}, "[4]": {"settings": "female, SD (Sprague-Dawley), rat, in vivo, po, 157 in plasma, PO 1.5 mg/kg, Mean"}, "[5]": {"settings": "female, SD (Sprague-Dawley), rat, in vivo, po, 157 in plasma, PO 1.5 mg/kg, rat 1"}, "[6]": {"settings": "female, SD, rat, in vivo, iv, iv 1.5 mg/kg, Mean, read-out: 157 brain concentration"}, "[7]": {"settings": "female, SD, rat, in vivo, iv, iv 1.5 mg/kg, Mean, read-out: 157 liver concentration"}, "[8]": {"settings": "female, SD, rat, in vivo, iv, iv 1.5 mg/kg, Rat 1, read-out: 157 brain concentration"}, "[9]": {"settings": "female, SD, rat, in vivo, iv, iv 1.5 mg/kg, Rat 2, read-out: 157 brain concentration"}},
  "note": "Where two headings read alike, the source gives them in different places.",
  "data": [
    {"smiles": "CCCCCCCOC(=O)C1C2CCC(O2)C1C(=O)N1CCN(C)CC1", "note": "(stereo not shown) [Compound 157, 3-(4-Methylpiperazine-1-carbonyl)-7-oxa-bicyclo[2,2,1]heptane-2-carboxylic acid heptyl ester]", "values": [
      {"measurement": "F", "setting": "157, PO 1.5 mg/kg vs IV 1.5 mg/kg, Mean", "value": 6.78, "unit": "%"},
      {"measurement": "conversion to endothal in the plasma (statement)", "setting": "157 administered to rats", "value": "converted to endothal"},
      {"measurement": "Tmax", "setting": "157 in Brain, iv 1.5 mg/kg, Mean", "value": 15, "unit": "min"},
      {"measurement": "Tmax", "setting": "157 in Brain, iv 1.5 mg/kg, rat 1", "value": 15, "unit": "min"},
      {"measurement": "Tmax", "setting": "157 in Brain, iv 1.5 mg/kg, rat 2", "value": 15, "unit": "min"},
      {"measurement": "Tmax", "setting": "157 in Liver, iv 1.5 mg/kg, rat 1", "value": 15, "unit": "min"},
      {"measurement": "Tmax", "setting": "157 in Liver, iv 1.5 mg/kg, rat 2", "value": 15, "unit": "min"},
      {"measurement": "Tmax", "setting": "157 in plasma, IV 1.5 mg/kg, Mean", "value": 15, "unit": "min"},
      {"measurement": "Tmax", "setting": "157 in plasma, IV 1.5 mg/kg, rat 2", "value": 15, "unit": "min"},
      {"measurement": "Tmax", "setting": "157 in plasma, PO 1.5 mg/kg, rat 1", "value": 30, "unit": "min"},
      {"measurement": "AUClast of 157 in brain", "setting": "157 iv 1.5 mg/kg", "value": 24.6, "unit": "ng·h/g"},
      {"measurement": "AUClast of 157 in liver", "setting": "157 iv 1.5 mg/kg", "value": 152, "unit": "ng·h/g"},
      {"measurement": "oral availability of 157 (statement)", "setting": "157 po 1.5 mg/kg", "value": "poorly orally available"},
      {"measurement": "Tmax", "setting": "female, SD (Sprague-Dawley), in vivo, 157 in plasma, IV 1.5 mg/kg, rat 1, read-out: Tmax", "value": 15, "unit": "min"},
      {"measurement": "AUC(0-inf)", "setting": "[1]", "value": 47.2, "unit": "ng·h/mL"},
      {"measurement": "AUC", "setting": "[1]", "value": 47.2, "unit": "ng·h/mL"},
      {"measurement": "Cmax", "setting": "female, SD (Sprague-Dawley), rat, in vivo, iv, 157 in plasma, IV 1.5 mg/kg, Mean, read-out: Cmax", "value": 115, "unit": "ng/mL"},
      {"measurement": "MRT last", "setting": "[1]", "value": 20.5, "unit": "min"},
      {"measurement": "half-life", "setting": "female, SD (Sprague-Dawley), rat, in vivo, iv, 157 in plasma, IV 1.5 mg/kg, Mean, read-out: T1/2 (converted)", "value": 23.5, "unit": "min"},
      {"measurement": "AUC(0-inf)", "setting": "[2]", "value": 47.1, "unit": "ng·h/mL"},
      {"measurement": "AUC", "setting": "[2]", "value": 47.1, "unit": "ng·h/mL"},
      {"measurement": "Cmax", "setting": "female, SD (Sprague-Dawley), rat, in vivo, iv, 157 in plasma, IV 1.5 mg/kg, rat 1, read-out: Cmax", "value": 116, "unit": "ng/mL"},
      {"measurement": "MRT last", "setting": "[2]", "value": 20, "unit": "min"},
      {"measurement": "half-life", "setting": "female, SD (Sprague-Dawley), rat, in vivo, iv, 157 in plasma, IV 1.5 mg/kg, rat 1, read-out: T1/2 (converted)", "value": 24.5, "unit": "min"},
      {"measurement": "AUC(0-inf)", "setting": "[3]", "value": 47.3, "unit": "ng·h/mL"},
      {"measurement": "AUC", "setting": "[3]", "value": 47.3, "unit": "ng·h/mL"},
      {"measurement": "Cmax", "setting": "female, SD (Sprague-Dawley), rat, in vivo, iv, 157 in plasma, IV 1.5 mg/kg, rat 2, read-out: Cmax", "value": 114, "unit": "ng/mL"},
      {"measurement": "MRT last", "setting": "[3]", "value": 20.9, "unit": "min"},
      {"measurement": "half-life", "setting": "female, SD (Sprague-Dawley), rat, in vivo, iv, 157 in plasma, IV 1.5 mg/kg, rat 2, read-out: T1/2 (converted)", "value": 22.4, "unit": "min"},
      {"measurement": "AUC(0-inf)", "setting": "[4]", "value": 3.2, "unit": "ng·h/mL"},
      {"measurement": "AUC", "setting": "[4]", "value": 3.2, "unit": "ng·h/mL"},
      {"measurement": "Cmax", "setting": "female, SD (Sprague-Dawley), rat, in vivo, po, 157 in plasma, PO 1.5 mg/kg, Mean, read-out: Cmax", "value": 6.14, "unit": "ng/mL"},
      {"measurement": "MRT last", "setting": "[4]", "value": 56.8, "unit": "min"},
      {"measurement": "half-life", "setting": "female, SD (Sprague-Dawley), rat, in vivo, po, 157 in plasma, PO 1.5 mg/kg, Mean, read-out: T1/2 (converted)", "value": 24.2, "unit": "min"},
      {"measurement": "AUC(0-inf)", "setting": "[5]", "value": 3.4, "unit": "ng·h/mL"},
      {"measurement": "AUC", "setting": "[5]", "value": 3.4, "unit": "ng·h/mL"},
      {"measurement": "Cmax", "setting": "female, SD (Sprague-Dawley), rat, in vivo, po, 157 in plasma, PO 1.5 mg/kg, rat 1, read-out: Cmax", "value": 5.92, "unit": "ng/mL"},
      {"measurement": "MRT last", "setting": "[5]", "value": 59.3, "unit": "min"},
      {"measurement": "half-life", "setting": "female, SD (Sprague-Dawley), rat, in vivo, po, 157 in plasma, PO 1.5 mg/kg, rat 1, read-out: T1/2 (converted)", "value": 26.2, "unit": "min"},
      {"measurement": "Tmax", "setting": "female, SD (Sprague-Dawley), rat, in vivo, 157 in plasma, PO 1.5 mg/kg, Mean, read-out: Tmax", "value": 30, "unit": "min"},
      {"measurement": "half-life", "setting": "female, SD, rat, in vivo, iv, 157 iv 1.5 mg/kg, read-out: T1/2 of 157 in brain (converted)", "value": 9.72, "unit": "min"},
      {"measurement": "half-life", "setting": "female, SD, rat, in vivo, iv, 157 iv 1.5 mg/kg, read-out: T1/2 of 157 in liver (converted)", "value": 48.8, "unit": "min"},
      {"measurement": "half-life", "setting": "female, SD, rat, in vivo, iv, 157 iv 1.5 mg/kg, read-out: T1/2 of 157 in plasma (converted)", "value": 23.5, "unit": "min"},
      {"measurement": "Cmax", "setting": "female, SD, rat, in vivo, iv, 157 iv 1.5 mg/kg, read-out: mean Cmax of 157 in brain", "value": 60, "unit": "ng/g"},
      {"measurement": "Cmax", "setting": "female, SD, rat, in vivo, iv, 157 iv 1.5 mg/kg, read-out: mean Cmax of 157 in liver", "value": 297, "unit": "ng/g"},
      {"measurement": "Cmax", "setting": "female, SD, rat, in vivo, iv, 157 iv 1.5 mg/kg, read-out: mean Cmax of 157 in plasma", "value": 115, "unit": "ng/mL"},
      {"measurement": "concentration at 0.25 h", "setting": "[6]", "value": 60, "unit": "ng/g"},
      {"measurement": "concentration at 0.25 h", "setting": "[7]", "value": 297, "unit": "ng/g"},
      {"measurement": "concentration at 0.25 h", "setting": "[8]", "value": 60, "unit": "ng/g"},
      {"measurement": "concentration at 0.25 h", "setting": "[9]", "value": 60, "unit": "ng/g"},
      {"measurement": "concentration at 1 h", "setting": "[6]", "value": 2.4, "unit": "ng/g"},
      {"measurement": "concentration at 1 h", "setting": "[7]", "value": 23.5, "unit": "ng/g"},
      {"measurement": "concentration at 1 h", "setting": "[8]", "value": 1.99, "unit": "ng/g"},
      {"measurement": "concentration at 1 h", "setting": "female, SD, rat, in vivo, iv, iv 1.5 mg/kg, Rat 1, read-out: 157 liver concentration", "value": 29.4, "unit": "ng/g"},
      {"measurement": "concentration at 1 h", "setting": "[9]", "value": 2.8, "unit": "ng/g"}
    ]}
  ]
}
